Assay results published in patent publication US11028083B2, “Ethanediamine-heterocycle derivatives as inhibitors of protein arginine methyltransferases” (Board of Regents, The University of Texas System, priority 2018, dated 2021).

How the values were obtained:
PRMT1 = PRMT1 (Homo sapiens (Human), UniProt Q99873); test: PRMT1 Enzymatic Assay (LANCE TR-FRET, methylation of histone H4 at Arg3); assay type: biochemical; conditions: PRMT-1 Enzymatic Assay; 1 μM SAM, 25 nM biotinylated histone H4 (1-21)
Procedure: In order to measure PRMT1 enzymatic activity the LANCE TR-FRET assay from PerkinElmer was used to follow the methylation of histone H4 at Arg3 using S-adenosyl-L-methionine (SAM) as the methyl group donor.
Final concentrations of PRMT1, SAM, and histone H4 (1-21) refer to a 10 μL volume.
Detection of methylated histone H4 (H4R3me) was achieved by combining LANCE Ultra Europium-anti-H4R3me antibody (PerkinElmer, Catalog #TRF04-14), LANCE Ultra ULight-anti-streptavidin antibody (PerkinElmer, Catalog #TRF0102), and sinefungin (Sigma, Catalog #S8559) (final concentrations 2 nM, 50 nM, and 100 μM respectively) in 1×LANCE detection buffer (PerkinElmer, Catalog #CR97-100) and adding 10 μL/well of the detection solution to the assay plate. Detection reagents were allowed to react for 1 hour at room temperature. Final concentrations in the detection solution refer to a 20 μL volume.

[1] = target: Full-length human GST-PRMT4 (Homo sapiens (Human), UniProt Q86X55); test: PRMT4 RapidFire Mass Spectrometry Selectivity Assay (SAH production); assay type: biochemical; conditions: Rapid fire enzyme assay; 0.5 μM SAM, 15 nM Histone H3.3; read-out: PRMT-4 IC50
Source text: Full-length human GST-PRMT4 (SignalChem, catalog#P365-380DG) was expressed by baculovirus in Sf9 insect cells.

PRMT1 in RKO cells = PRMT1 in RKO cells (Homo sapiens (Human), UniProt Q99873); test: PRMT1 RKO Cellular Target Engagement Assay (In-Cell Western, asymmetric di-methyl arginine); assay type: cell-based; conditions: PRMT-1 Target Engagement, 48 hr compound incubation
Procedure: In preparation for the In-Cell Western assay, cells were harvested and resuspended in EMEM media supplemented with 10% fetal bovine serum. […] The culture plate was incubated for 24 hr at 37° C. with 5% CO2 and ambient O2. […] The primary antibody was then removed, and the plate was washed three times with 1×PBST. […] The plate was then incubated in the dark, at room temperature for 1 hour followed by three washes with 1×PBST and one wash with H2O. The IRDye secondary antibody signal (800 channel) and the CellTag signal (700 channel) were measured using a Licor Odyssey Imager, and the 800 channel signal was then normalized to the 700 channel signal. IC50 values were calculated using a four-parameter logistic curve fit using Genedata Screener software.

[2] = target: Full-length human PRMT1 (1-361) (Homo sapiens, UniProt Q99873); test: PRMT1 RapidFire Mass Spectrometry Selectivity Assay (SAH production); assay type: biochemical; conditions: Rapid fire enzyme assay; 1 μM SAM, 50 nM histone H4 (1-21); read-out: PRMT-1 IC50
[3] = target: Full-length human PRMT6 (1-375) (Homo sapiens (Human), UniProt Q96LA8); test: PRMT6 RapidFire Mass Spectrometry Selectivity Assay (SAH production); conditions: read-out: PRMT-6 IC50; Rapid fire enzyme assay; 3 μM SAM, 250 nM Histone H4 (36-50) K44 MeI
Chain of Full-length human PRMT6 (1-375) (Q96LA8 whole entry): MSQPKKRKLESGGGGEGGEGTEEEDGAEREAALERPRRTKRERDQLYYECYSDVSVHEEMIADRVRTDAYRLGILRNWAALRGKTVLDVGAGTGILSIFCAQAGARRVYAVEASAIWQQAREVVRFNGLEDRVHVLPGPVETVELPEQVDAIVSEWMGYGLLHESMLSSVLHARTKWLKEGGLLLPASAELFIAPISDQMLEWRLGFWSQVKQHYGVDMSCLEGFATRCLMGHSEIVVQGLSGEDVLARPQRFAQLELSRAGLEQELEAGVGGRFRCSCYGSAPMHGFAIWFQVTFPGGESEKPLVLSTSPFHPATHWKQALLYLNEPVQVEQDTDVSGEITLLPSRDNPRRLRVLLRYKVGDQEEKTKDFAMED
Procedure: The PRMT6 assay was performed by dispensing 6 uL/well (final concentration of 10 nM) of PRMT6 protein diluted in assay buffer to the plate. Stock solutions of the test compounds were prepared in 100% DMSO (Sigma, Catalog #D2650) and serially diluted 1:3 using 100% DMSO. Compounds were additionally diluted 1:50 in assay buffer, and 6 μL/well were transferred to the assay plate. Plates were allowed to incubate for 15 min at room temperature.
RapidFire buffer A contained H2O and buffer B was 80% acetonitrile/H2O. […] SAH peaks were integrated using RapidFire peak software and IC50 values were calculated using a four-parameter logistic curve fit using Genedata Screener software.

Chain of Full-length human GST-PRMT4 (Q86X55 whole entry): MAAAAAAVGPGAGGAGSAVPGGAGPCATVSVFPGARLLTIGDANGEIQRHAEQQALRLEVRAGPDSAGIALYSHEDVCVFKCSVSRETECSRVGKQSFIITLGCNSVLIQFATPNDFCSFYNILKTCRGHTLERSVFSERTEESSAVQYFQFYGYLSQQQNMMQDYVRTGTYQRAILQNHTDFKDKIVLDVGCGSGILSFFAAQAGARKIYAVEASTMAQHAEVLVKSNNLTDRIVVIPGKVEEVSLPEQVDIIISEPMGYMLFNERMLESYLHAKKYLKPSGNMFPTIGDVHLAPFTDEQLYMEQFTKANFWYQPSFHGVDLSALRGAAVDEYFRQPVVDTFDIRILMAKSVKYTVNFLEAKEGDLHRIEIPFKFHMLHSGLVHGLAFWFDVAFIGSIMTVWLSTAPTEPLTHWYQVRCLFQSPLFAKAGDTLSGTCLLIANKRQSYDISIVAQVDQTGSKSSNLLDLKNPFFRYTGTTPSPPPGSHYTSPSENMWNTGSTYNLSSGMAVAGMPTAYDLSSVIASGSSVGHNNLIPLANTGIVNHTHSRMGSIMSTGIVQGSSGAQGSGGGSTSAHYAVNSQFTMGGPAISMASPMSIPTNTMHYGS
Chain of PRMT1 (Q99873 whole entry): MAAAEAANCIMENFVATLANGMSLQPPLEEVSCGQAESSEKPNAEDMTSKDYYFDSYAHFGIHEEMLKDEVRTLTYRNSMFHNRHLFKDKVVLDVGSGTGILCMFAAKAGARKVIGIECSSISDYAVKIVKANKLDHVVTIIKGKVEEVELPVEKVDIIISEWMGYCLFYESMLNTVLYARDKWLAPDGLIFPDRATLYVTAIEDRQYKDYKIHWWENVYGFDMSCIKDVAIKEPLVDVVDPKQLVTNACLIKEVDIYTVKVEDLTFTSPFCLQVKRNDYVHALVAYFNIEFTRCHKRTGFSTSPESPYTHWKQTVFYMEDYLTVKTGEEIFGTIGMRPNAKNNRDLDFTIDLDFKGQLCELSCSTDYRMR
Chain of PRMT1 in RKO cells (Q99873 whole entry): as above

Compound	IC50 (PRMT1)	IC50 [1]	also measured
CNCCN(C)Cc1nn2c(c1C1CCC3(CCCC3)CC1)CCC2 [Example 49, N^1,N^2-dimethyl-N^1-((3-(spiro[4.5]decan-8-yl)-5,6-dihydro-4H-pyrrolo[1,2-b]pyrazol-2-yl)methyl)ethane-1,2-diamine]	–	114 nM	–
CNCCN(C)Cc1nn2c(c1C1CCCCC1)CCCC2 [Example 21, N^1-((3-cyclohexyl-4,5,6,7-tetrahydropyrazolo[1,5-a]pyridin-2-yl)methyl)-N^1,N^2-dimethylethane-1,2-diamine]	–	1120 nM	–
CCOCC1(COCC)CCC(c2c(CN(C)CCNC)nn3c2CCC3)CC1 [Example 2, N^1-((3-(4,4-bis(ethoxymethyl)cyclohexyl)-5,6-dihydro-4H-pyrrolo[1,2-b]pyrazol-2-yl)methyl)-N^1, N^2-dimethylethane-1,2-diamine]	–	79 nM	–

Further lines, with some results ahead:

IC50 (PRMT1)	IC50 [1]	Compound	also measured
73 nM	–	CCOCC1(COCC)CCC(c2c(CNCCN)nn3c2CC(F)(F)C3)CC1 [Example 92, N^1-((3-(4,4-bis(ethoxymethyl)cyclohexyl)-5,5-difluoro-5,6-dihydro-4H-pyrrolo[1,2-b]pyrazol-2-yl)methyl)ethane-1,2-diamine]	–
–	337 nM	CNCCN(C)Cc1nn2c(c1C1CCC(C)(C)CC1)CCC2 [Example 51, N^1-((3-(4,4-dimethylcyclohexyl)-5,6-dihydro-4H-pyrrolo[1,2-b]pyrazol-2-yl)methyl)-N^1,N^2-dimethylethane-1,2-diamine]	–
44 nM	654 nM	CNCCN(C)Cc1nn2c(c1C1CCCCC1)CCC2 [Example 11, N^1-((3-cyclohexyl-5,6-dihydro-4H-pyrrolo[1,2-b]pyrazol-2-yl)methyl)-N^1,N^2-dimethylethane-1,2-diamine]	IC50 (PRMT1 in RKO cells): 14000 nM; IC50 [2]: 93 nM; IC50 [3]: 99 nM
